IC50 data for 88 molecules are collected here from PubChem BioAssay AID1418 (Emory University Molecular Libraries Screening Center, 2008).

Activity calls are given as the source filed them. The rule behind the calls is not given here.

Chain of Induced myeloid leukemia cell differentiation protein Mcl-1 (Homo sapiens) (Q07820 whole entry, looked up): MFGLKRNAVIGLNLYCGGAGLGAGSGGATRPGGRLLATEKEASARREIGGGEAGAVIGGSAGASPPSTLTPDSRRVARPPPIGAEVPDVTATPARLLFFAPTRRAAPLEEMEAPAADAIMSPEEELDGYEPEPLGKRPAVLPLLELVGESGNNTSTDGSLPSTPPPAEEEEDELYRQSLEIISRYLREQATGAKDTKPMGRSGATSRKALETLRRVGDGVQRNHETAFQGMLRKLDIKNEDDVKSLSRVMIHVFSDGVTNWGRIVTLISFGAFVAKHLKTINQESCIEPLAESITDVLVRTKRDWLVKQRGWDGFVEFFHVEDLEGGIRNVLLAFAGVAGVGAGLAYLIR

The test concerns the target Induced myeloid leukemia cell differentiation protein Mcl-1 (Homo sapiens) (UniProt Q07820). Briefly: blockers of Bid binding to Mcl-1 – biochemical, TR-FRET, dose response (AID 1418). Particulars: Mcl-1/Bid peptide binding, TR-FRET (europium/Dy647), 2 hr.
As a reminder, the IC50 is the concentration that inhibits the measured activity by half. In the case of `Cc1cc(=O)[nH]c(SCC(=O)c2ccc3c(c2)NC(=O)CO3)n1`, the IC50 was > 54 µM (inactive).

For `S=C(NCc1ccc(Cl)cc1)NC1CCN(Cc2ccccc2)CC1`, the IC50 is > 54 µM (inactive).

As for `CCN1/C(=C\C=C2\C(=O)N(c3ccccc3)C(=S)N2C)Sc2ccccc21`, the concentration for half-maximal inhibition (IC50) was 2.97 µM.

On to `CC(NCc1ccc2c(c1)OCO2)C(=O)NC1CCCc2ccccc21` (stereo not drawn), for which the IC50 is > 54 µM (inactive).

For the molecule `CNC(=S)Nc1cc(C)ccc1OC(F)F`, the IC50 is > 54 µM (inactive).

Turning to `CCOC(=O)c1ccccc1NC(=O)c1nc2nccc(C)n2n1`, the IC50 was > 54 µM (inactive).

In the case of `C/C(=N\NC(=O)c1cc(-c2cccc([N+](=O)[O-])c2)n[nH]1)c1ccccc1O`, the IC50 is 29 µM.

Consider `O=C(CSc1nc2c(cnn2-c2ccc(F)cc2)c(=O)[nH]1)N1CCCc2ccccc21`, for which the IC50 was > 54 µM (inactive).

Regarding `Cc1csc2ncnc(N3CCN(C(=S)Nc4ccc(F)cc4F)CC3)c12`, the IC50 was > 54 µM (inactive).

For the molecule `CC(C)(C)CC(=O)O/N=C(\N)c1ccncc1`, the IC50 is > 54 µM (inactive).

Turning to `Cc1cc(=O)c2ccc(C(F)(F)F)cc2[nH]1`, the IC50 is > 54 µM (inactive).

On to `CC(=O)Nc1ccc(S(=O)(=O)NCc2ccccn2)cc1`, for which the IC50 is > 54 µM (inactive).

Turning to `Brc1cccc(OCCOCCn2ccnc2)c1`, the IC50 was > 54 µM (inactive).

On to `Cc1ccc(N2C(=O)CC(Cn3nc(C)cc3C)C2=O)cc1` (stereo not drawn), for which the IC50 was > 54 µM (inactive).

`O=C(CN1C(=O)c2cccc3cccc1c23)Nc1ccc(S(=O)(=O)N2CCOCC2)cc1`: the IC50 was > 54 µM (inactive).

Regarding `O=c1oc2ccccc2n1CCn1c2ccccc2c2nc3ccccc3nc21`, the IC50 was 8.21 µM.

Consider `O=C(Nc1ccc(Cl)cc1)N1CCc2[nH]c3ccccc3c2C1`, for which the IC50 was > 54 µM (inactive).

For `COc1ccc(C(=O)Nc2ccc3c(c2)C(=O)c2ccccc2C3=O)cc1OC`, the IC50 was 0.6 µM.

Consider `C#CCOCCOCCOCCNc1nc(N2CCN(C(=O)[C@H](Cc3cc4ccccc4[nH]3)n3cc([C@@H](N)C(C)CC)nn3)CC2)nc(N2CCN(C(=O)[C@H](Cc3cc4ccccc4[nH]3)n3cc([C@@H](N)Cc4ccc(O)cc4)nn3)CC2)n1` (stereo partly drawn), for which the IC50 was > 54 µM (inactive).

For the molecule `Cc1ccc(-n2c(C)n[nH]c2=S)cc1C`, the IC50 was > 54 µM (inactive).

`O=C(CCN1C(=O)/C(=C/c2cccc(Br)c2)SC1=S)NNC(=O)c1cccnc1`: the IC50 was 4.52 µM.

On to `C/C(=N/NC(=O)c1cc(-c2cccc([N+](=O)[O-])c2)n[nH]1)c1ccc(Cl)cc1`, for which the IC50 was 2.27 µM.

As for `O=C(O)CCCC(=O)Nc1cccc(C(=O)Nc2ccccc2C(=O)O)c1`, the IC50 is > 54 µM (inactive).

In the case of `CCCCOc1ccc(C(=O)NCCC(=O)NCCCC(=O)OCC)cc1`, the IC50 is > 54 µM (inactive).

For the molecule `O=C(Cn1c(C(F)(F)F)nc2ccccc21)c1ccc(F)cc1`, the IC50 was > 54 µM (inactive).

Take `Cc1ccc(C)c(C(=O)COC(=O)CCCC(=O)Nc2cc(C(F)(F)F)ccc2Cl)c1`: the IC50 was > 54 µM (inactive).

With `Cc1sc(NC(=O)c2cc(-c3ccc(Cl)cc3)nc3ccccc23)c(C(N)=O)c1C`, the IC50 is 0.92 µM.

As to `COc1ccc2nc(C)cc(SCC(=O)Nc3c(C)cccc3C)c2c1`, the IC50 is 10.5 µM.

Take `COC(=O)c1cc(OC)c(OC)cc1NCC(=O)Nc1ccc(C)cc1`: the IC50 was > 54 µM (inactive).

As for `CC(/C=C1\SC(=S)N(NS(=O)(=O)c2ccc(C)cc2)C1=O)=C\c1ccccc1`, the IC50 was 25 µM.

For `Cc1cc(NC2C3CC4CC(C3)CC2C4)n2nnnc2n1` (stereo not drawn), the IC50 is > 54 µM (inactive).

In the case of `Cc1sc2ncnc(OCC(=O)Nc3ccc4c(c3)OCCO4)c2c1C`, the IC50 is > 54 µM (inactive).

Take `Cc1cc(=O)oc2cc(OCc3ccc(C(=O)OCC(=O)Nc4ccc(N(C)C)cc4)cc3)ccc12`: the half-maximal inhibitory concentration (IC50) is 0.7 µM.

For `Cc1ccc(NC(=O)c2ccc3ncsc3c2)cc1S(=O)(=O)N(C)C`, the IC50 entry was “inactive”.

On to `Cc1nc(CSc2nc3[nH]ncc3c(=O)n2-c2ccccc2)cs1`, for which the IC50 was > 54 µM (inactive).

For `CCCc1nc2oc3cc(OC)ccc3c(=O)c2c(=O)n1CCc1ccccc1`, the IC50 is > 54 µM (inactive).

In the case of `CSc1cccc(NC(=O)CN(C)S(=O)(=O)c2ccccc2)c1`, the IC50 was > 54 µM (inactive).

On to `Cc1cc(C)c2c(c1)C1C=CCC1C(c1ccc(S(=O)(=O)N3CCOCC3)cc1)N2` (stereo not drawn), for which the IC50 was > 54 µM (inactive).

For `C=CCc1ccc(OCCOCCOc2cccc3ccc(C)nc23)c(OC)c1`, the IC50 is > 54 µM (inactive).

For the molecule `COc1ccccc1C(=O)NC(=S)NNC(=O)c1sc2ccccc2c1Cl`, the IC50 was 1.7 µM.

With `COc1cc2c(cc1OC)-c1cc(NCc3ccccn3)nc(=O)n1CC2`, the IC50 is 0.55 µM.

As to `COc1cc(/C=C2\SC(=O)N(c3cccc(Cl)c3)C2=O)cc([N+](=O)[O-])c1O`, the 50% inhibitory concentration (IC50) is 6.38 µM.

`CCCCSc1cc(C)nc(N)n1`: the IC50 is > 54 µM (inactive).

Consider `CC(C)NC(=O)C1CCCN(S(=O)(=O)c2ccc(-n3cnnn3)cc2)C1` (stereo not drawn), for which the IC50 is > 54 µM (inactive).

Take `CCOc1ccc(/C=C/C(=O)Nc2ccc(N3CCOCC3)cc2)cc1`: the IC50 is > 54 µM (inactive).

For the molecule `O=S(=O)(c1ccccc1F)N1CCN(Cc2nc3ccccc3[nH]2)CC1`, the IC50 is > 54 µM (inactive).

Take `C=CCn1cc(C(=O)NCc2ccco2)c(=O)c2cc(S(=O)(=O)N3CCCCCC3)ccc21`: the IC50 is > 54 µM (inactive).

In the case of `CCc1nnc(NS(=O)(=O)c2ccc(NC(=S)NC(=O)/C=C/c3ccc(C(C)C)cc3)cc2)s1`, the IC50 was 3.99 µM.

For `COc1ccc(CCNC(=O)COC(=O)Cc2ccccc2)cc1`, the IC50 is > 54 µM (inactive).

In the case of `C=CCn1c(SCc2ccc([N+](=O)[O-])cc2)nnc1C(C)NC(=O)c1ccccc1` (stereo not drawn), the IC50 is > 54 µM (inactive).

As for `Cc1ccc2cccc(Oc3ncnc4scc(-c5ccc(Cl)cc5)c34)c2n1`, the IC50 is > 54 µM (inactive).

Turning to `Cc1ccc(COc2ccc(C(=O)NN)cc2)cc1`, the IC50 was > 54 µM (inactive).

Turning to `Cc1ccc2c(c1)C1C=CCC1C(C(=O)O)N2` (stereo not drawn), the IC50 is 2.2 µM.

Take `NCCCC[C@H](NC(=O)C1CCNCC1)c1nnc(CN)o1`: the IC50 is > 54 µM (inactive).

`COc1cc(NC(=O)C2CCN(S(=O)(=O)c3cccc4nonc34)CC2)cc(OC)c1`: the IC50 is > 54 µM (inactive).

For the molecule `O=C(Nc1ccc(CCC(=O)N2CCCC2)cc1)c1ncn[nH]1`, the IC50 was > 54 µM (inactive).

With `CCSC1=NC2(CCCCC2)Nc2sc3c(c21)CCCC3`, the half-maximal inhibitory concentration (IC50) was 0.44 µM.

As for `O=C(/C=C/c1cccc([N+](=O)[O-])c1)Nc1ccc(NC(=O)c2cccs2)cc1`, the IC50 was 10.6 µM.

In the case of `Cc1c(C(=O)N/N=C/c2ccc(-c3ccccc3[N+](=O)[O-])o2)sc(N)c1C#N`, the IC50 was 14.1 µM.

As to `Nc1c(C(=O)NC2CC2)sc2nc3c(c(-c4ccco4)c12)CC/C3=C/c1ccco1`, the IC50 was > 54 µM (inactive).

Take `CN(C)c1ccc(-c2nnc(-c3ccc(S(=O)(=O)C(F)F)cc3)o2)cc1`: the IC50 is 2.48 µM.

Turning to `CCOc1ccc2nc(NC(=O)c3cccc(-c4cc5ccccc5oc4=O)c3)sc2c1`, the IC50 is 1.94 µM.

For the molecule `CC(=O)Nc1cccc(NC(=O)Nc2ccc(C(C)=O)cc2)c1`, the IC50 was > 54 µM (inactive).

For the molecule `O=C1OC(c2ccccc2)=C/C1=C/N1CCCCC1`, the IC50 is > 54 µM (inactive).

As to `CN(C)S(=O)(=O)c1cccc(-c2nn(-c3ccccc3)cc2/C=C2\SC(=S)NC2=O)c1`, the IC50 was 9.99 µM.

`C=CS(=O)(=O)c1sc(Cl)c(N2CCOCC2)c1[N+](=O)[O-]`: the IC50 is 1.77 µM.

For `COc1cc2c(cc1OC)-c1cc(NC3CCCCCCC3)nc(=O)n1CC2`, the IC50 is > 54 µM (inactive).

With `Oc1ccc(/C=N/Nc2ccnc3cc(Cl)ccc23)c(O)c1`, the IC50 was 6.69 µM.

Take `O=C(Nc1ccccc1)NC1CCS(=O)(=O)C1` (stereo not drawn): the IC50 was > 54 µM (inactive).

In the case of `COc1ccccc1CCc1nnc(CCC(=O)NC(C)Cc2cccnc2)o1` (stereo not drawn), the IC50 is > 54 µM (inactive).

Turning to `Fc1ccc(NC(=S)N/N=C/c2cccc(Br)c2)c(F)c1`, the IC50 is > 54 µM (inactive).

For the molecule `CC1=NN(c2ccccc2)C(=O)/C1=C\c1cn(-c2ccccc2)nc1C`, the IC50 was > 54 µM (inactive).

`COc1ccc(NC(=S)NNc2ccc(S(=O)(=O)Nc3ccccc3C(=O)O)cc2[N+](=O)[O-])cc1`: the IC50 is 22.3 µM.

Consider `N#Cc1nc(COc2ccc(F)cc2)oc1N1CCN(Cc2ccccc2)CC1`, for which the IC50 was > 54 µM (inactive).

In the case of `Cc1ccc(C)c(NC(=O)C2CCCN2/C=C/C(=O)C(F)(F)F)c1` (stereo not drawn), the IC50 was > 54 µM (inactive).

Regarding `O=C(NN1C(=O)C2C(C1=O)C1C=CC2C12CC2)c1ccc(Cl)cc1` (stereo not drawn), the IC50 is > 54 µM (inactive).

`COc1ccc(C2C(C#N)=C(N)OC3=C2C(=O)CCC3)cc1OC` (stereo not drawn): the IC50 is > 54 µM (inactive).

As for `Cc1cccc(C)c1NC(=O)C1c2ccccc2Oc2ccccc21`, the IC50 was > 54 µM (inactive).

As for `O=c1c2cnn(-c3ccccc3)c2nc(-c2cccs2)n1-c1cccc(Cl)c1`, the IC50 is > 54 µM (inactive).

As for `O=C1OC(c2cccs2)=N/C1=C/c1ccc(-c2cccc(C(=O)O)c2)o1`, the IC50 is 2.68 µM.

As for `CCCCN1C(=O)/C(=C/C=C/c2ccco2)C(=O)NC1=S`, the IC50 is 8.35 µM.

On to `CCNc1ccc2c(Cl)cc(=O)oc2c1`, for which the IC50 was > 54 µM (inactive).

Turning to `COc1ccc(NC(=O)Nc2nnc(CC(=O)NCc3ccccc3)s2)cc1`, the IC50 is > 54 µM (inactive).

Turning to `Cc1c(C(=O)OCc2ccccc2)[nH]c2c1C(=O)CC(c1ccco1)C2` (stereo not drawn), the IC50 is > 54 µM (inactive).

With `CCCCCSc1nnc2c(n1)OC(c1cccn1C)N(C(C)=O)c1ccccc1-2` (stereo not drawn), the IC50 was > 54 µM (inactive).

As to `O=C(N/N=C/c1ccc([N+](=O)[O-])o1)c1cc2c(ccc3ccccc32)o1`, the IC50 is 1.71 µM.

Regarding `COc1cc(CNc2ccc(O)cc2)cc(Br)c1OCc1ccccc1F`, the IC50 was > 54 µM (inactive).

For `CSC1=N/C(=C\c2ccccc2F)C(=O)S1`, the IC50 was > 54 µM (inactive).
